Reference: article PMC3972617 (Xenobiotica; the fate of foreign compounds in biological …, 2013)

How the values were obtained:
[1] = system: primary mouse hepatocytes; assay: LDH release cytotoxicity in cultured primary mouse hepatocytes; format: cell-based; conditions: 24 h exposure
[2] = Pharmacokinetic profiling of Inhibitor-1 in mice; format: in vivo; conditions: for AUC(0-t): AUC0–24 h
[3] = system: diclofenac (DCF)-induced small intestinal injury; conditions: Inh-1 given prior to DCF (60 mg/kg, ip); ref LoGuidice et al., 2012; cited from earlier work
[4] = system: diclofenac (DCF)-induced small intestinal injury; assay: Diclofenac-induced enteropathy in mice; format: in vivo, male C57BL/6J mice
[5] = system: indomethacin-induced small intestinal injury; assay: Indomethacin-induced enteropathy in mice
[6] = system: ketoprofen-induced small intestinal injury; assay: Ketoprofen-induced enteropathy in mice; format: in vivo, male C57BL/6J mice; conditions: Inh-1 10 μg/mouse po bid for 2 days before ketoprofen 100 mg/kg ip; 18 h
[7] = C57BL/6J, mouse, plasma, iv, 3 mg/kg, Inh-1 3 mg/kg iv, vehicle pretreatment
[8] = C57BL/6J, mouse, plasma, po, 3 mg/kg, Inh-1 3 mg/kg po, vehicle pretreatment
[9] = single oral dose Inh-1 10 μg/mouse 3 h after DCF 60 mg/kg ip, 18 h after DCF

In the case of `O=C(O)Cc1ccccc1Nc1c(Cl)cccc1Cl` [DCF, diclofenac, reference compound], the “LDH release from the cells” value ([1]; DCF 1000 μM) is reported as “significant increases in LDH release”.
`CCOc1ccc(NC(=S)N(CCO)Cc2cc3cc(C)cc(C)c3[nH]c2=O)cc1` [Inh-1, 1-((6,8-dimethyl-2-oxo-1,2-dihydroquinolin-3-yl)methyl)-3-(4-ethoxyphenyl)-1-(2-hydroxyethyl)thiourea] gave an AUC(0-t) [2, 7] of 4380 ng·h/mL, a Cmax [2, 7] of 7190 ng/mL and a half-life ([2]; C57BL/6J, mouse, plasma, iv, 3 mg/kg, T1/2, Inh-1 3 mg/kg iv, vehicle pretreatment) of 42 min. It also gave an AUC(0-t) [2, 8] of 925 ng·h/mL, a Cmax [2, 8] of 513 ng/mL and a Tmax ([2]; C57BL/6J, mouse, plasma, po, 3 mg/kg, Tmax, Inh-1 3 mg/kg po, vehicle pretreatment) of 30 min. For the same molecule, the “time at which maximal plasma levels were attained” value ([2]; single oral administration of Inh-1 3 mg/kg) was 30 min, the “protection against DCF-induced enteropathy, pretreatment” value [3] was “complete protection” and the “protection against DCF-induced enteropathy, post-treatment” value ([4]; Inh-1 administered 3-h post-DCF (60 mg/kg, ip)) was “partial protection”. The “average area of total ulcers per mouse versus DCF alone” value [4, 9] was “not significantly different”, the “reduction of average ulcer number per mouse versus DCF controls” value [4, 9] was 71% and the “LDH release versus solvent controls” value ([1]; Inh-1 100 μM alone) was “did not significantly increase LDH release”. For the same molecule, the “effect on DCF concentration-toxic response curve (LDH release)” value ([1]; Inh-1 100 μM with DCF 500 or 1000 μM) was “did not alter the concentration-toxic response curve”, the “decrease of total area of indomethacin-induced intestinal injury” value ([5]; Inh-1 10 μg/mouse po bid for 2 days, last dose 1 h before indomethacin 10 mg/kg ip, 18 h post-dose) was 89% and the “NBT staining of jejunal mucosa (oxidoreductive stress)” value ([5]; Inh-1/indomethacin co-treated mice, 1 mM nitroblue tetrazolium incubation) was “remained unstained”. The “co-treated mice with an ulcer (one small ulcer)” value [6] was 1/11.
For `COc1ccc2c(c1)c(CC(=O)O)c(C)n2C(=O)c1ccc(Cl)cc1` [indomethacin, Indomethacin, reference compound], the “small intestinal mucosal ulceration” value ([5]; single dose of indomethacin alone 10 mg/kg ip, 18 h, majority of lesions in quartiles 2 and 3) was “marked mucosal ulceration”.
